Results on 44 molecules are retold here after BindingDB's records for doi:10.7270/Q2H70D5W (University of Pittsburgh, 2007).

The assay concerns the target Gag-Pol polyprotein (Human immunodeficiency virus type 1 group M subtype B (isolate HXB2), UniProt P04585). The assay can be described thus: HIV-1 RT RNase H inhibitor potency, dose response, biochemical, probe assessment (AID 652). The note with it: pH 8; 23 °C.

Molecules are shown by their SMILES.

The IC50 is the midpoint of a concentration-inhibition curve. Turning to `COCCn1c(-c2ccc(-c3ccccc3Cl)o2)nc2c1c(=O)[nH]c(=O)n2CC(C)C`, the IC50 is 4.55 µM.

Take `OCCN1CCN(C(=S)c2ccc(Cl)c(Cl)c2)CC1` [(3,4-dichlorophenyl)-[4-(2-hydroxyethyl)-1-piperazinyl]methanethione]: the half-maximal inhibitory concentration (IC50) amounted to 3.2 µM.

The molecule `CCCCCCNC(=O)c1c(N)n(N=Cc2ccco2)c2nc3ccccc3nc12` [SMR000042381] gave an IC50 of 2.77 µM. This IC50 and that of the molecule before are within 1.5-fold of each other.

`C=CCc1c(C)nc(S)c(C#N)c1C` [4,6-dimethyl-5-prop-2-enyl-2-sulfanylidene-1H-pyridine-3-carbonitrile] registered an IC50 of 7.25 µM.

`O=S(=O)(c1ccc(S(=O)(=O)N2CCN(C/C=C/c3ccccc3)CC2)cc1)N1CCCC1` [1-[(E)-3-phenylprop-2-enyl]-4-(4-pyrrolidin-1-ylsulfonylphenyl)sulfonyl-piperazine] yielded an IC50 of 12.2 µM.

Molecule `Cc1cccc(C(=O)OCC(=O)Nc2ccc(N3CCCCC3)cc2)c1O` [2-hydroxy-3-methyl-benzoic acid [2-keto-2-(4-piperidinoanilino)ethyl] ester] had an IC50 of 13.2 µM.

`CCCCCn1c(SCCCC)nc2c1c(=O)[nH]c(=O)n2C` gave an IC50 of 2.48 µM.

The molecule `Cc1oc(-c2ccc(Cl)cc2)cc1-c1nn2c(-c3ccoc3C)nnc2s1` [6-[5-(4-chlorophenyl)-2-methyl-3-furanyl]-3-(2-methyl-3-furanyl)-[1,2,4]triazolo[3,4-b][1,3,4]thiadiazole] gave an IC50 of 1.18 µM.

In turn, `N#Cc1c(N)nc(SCC(=O)NC2CCCCC2)c(C#N)c1-c1ccc(Cl)cc1` [2-[6-amino-4-(4-chlorophenyl)-3,5-dicyanopyridin-2-yl]sulfanyl-N-cyclohexylacetamide] registered an IC50 of 4.42 µM.

Molecule `CC(C)CN(C(=O)COC(=O)c1ccc2c(c1)NC(=O)CS2)C1CCS(=O)(=O)C1` (centres undefined) [3-keto-4H-1,4-benzothiazine-6-carboxylic acid [2-[(1,1-diketothiolan-3-yl)-isobutyl-amino]-2-keto-ethyl] ester] gave an IC50 of 30.3 µM.

Molecule `CCCc1cc(C(=O)Nc2sc(C)c(C)c2C(=O)OCC)no1` [4,5-dimethyl-2-[(5-propylisoxazole-3-carbonyl)amino]thiophene-3-carboxylic acid ethyl ester] returned an IC50 of 2.53 µM.

The molecule `Cc1nn(CCC#N)c2c1P(=S)(N1CCCC1)OC(c1ccc(F)cc1)=N2` (centres undefined) [3-[3-(4-fluorophenyl)-7-methyl-1-(1-pyrrolidinyl)-1-sulfanylidene-5-pyrazolo[4,3-c][1,5,2]oxazaphosphorinyl]propanenitrile] displayed an IC50 of 0.879 µM.

Molecule `Cc1ccccc1NC(=O)CSc1nc2c(c(-c3ccco3)c1C#N)CCCC2` [2-[[3-cyano-4-(2-furanyl)-5,6,7,8-tetrahydroquinolin-2-yl]thio]-N-(2-methylphenyl)acetamide] showed an IC50 of 5.23 µM.

For `COc1cccc(OCC(=O)Nc2c(C(=O)Nc3ccc(OC)cc3OC)oc3ccccc23)c1` [MLS000093002], the IC50 was found to be 1.77 µM.

`O=S(=O)(NS1=CC=CCN1S(=O)(=O)c1ccccc1)c1ccccc1` (centres undefined) [MLS000081951] yielded an IC50 of 4.33 µM.

As to `S=c1[nH]c(C2CC2)nc2ccccc12` [SMR000075851], the midpoint of inhibition, the IC50, lay at 2.06 µM.

`O=C(c1ccccc1F)N1CCN(S(=O)(=O)c2ccc(S(=O)(=O)N3CCCCC3)cc2)CC1` [(2-Fluoro-phenyl)-{4-[4-(piperidine-1-sulfonyl)-benzenesulfonyl]-piperazin-1-yl}-methanone] came in with an IC50 of 44 µM.

The molecule `c1ccc(Cc2nn3c(Cn4cnc5ccccc54)nnc3s2)cc1` [1-[(6-benzyl[1,2,4]triazolo[3,4-b][1,3,4]thiadiazol-3-yl)methyl]-1H-benzimidazole] yielded an IC50 of 2.2 µM.

The molecule `O=C(NC(=O)c1ccc(Cl)cc1)Nc1cc(N2CCCCC2)ncn1` [4-chloranyl-N-[(6-piperidin-1-ylpyrimidin-4-yl)carbamoyl]benzamide] returned an IC50 of 8.45 µM.

In turn, `O=c1[nH]c(=O)n(-c2ccc(F)cc2)c(O)c1C=Nc1ccccc1N1CCCC1` [(5E)-1-(4-fluorophenyl)-5-[[2-(1-pyrrolidinyl)anilino]methylidene]-1,3-diazinane-2,4,6-trione] registered an IC50 of 23.1 µM.

Turning to `Cc1ccc(Cn2c(SCC(C)C)nc3c2c(=O)[nH]c(=O)n3C)cc1` [3-methyl-7-[(4-methylphenyl)methyl]-8-(2-methylpropylthio)purine-2,6-dione], the IC50 worked out at 1.71 µM.

The molecule `CN1CCN(C(=O)c2sc(=S)n(-c3ccccc3)c2N)CC1` [(4-amino-3-phenyl-2-sulfanylidene-1,3-thiazol-5-yl)-(4-methylpiperazin-1-yl)methanone] yielded an IC50 of 2.29 µM. The IC50 values of the last two molecules are within 1.5-fold of each other.

`Cc1ccc(-n2c(N)c(C(N)=O)sc2=S)cc1` [4-amino-3-(4-methylphenyl)-2-sulfanylidene-1,3-thiazole-5-carboxamide] registered an IC50 of 2.58 µM. The IC50 values of the last two molecules are within 1.5-fold of each other.

Regarding `CC1(C)Cc2[nH]c(=S)c(C#N)cc2CO1` [7,7-dimethyl-2-sulfanylidene-5,8-dihydro-1H-pyrano[4,3-b]pyridine-3-carbonitrile], half-maximal inhibition (IC50) required 4.03 µM.

The molecule `O=C(Cn1c(=O)oc2cc(S(=O)(=O)N3CCCC3)ccc21)NC1CCCc2ccccc21` (centres undefined) [2-(2-keto-6-pyrrolidinosulfonyl-1,3-benzoxazol-3-yl)-N-tetralin-1-yl-acetamide] showed an IC50 of 19.8 µM.

In the case of `c1ccc2c(c1)nnn2Cc1nnc2sc(-c3ccc4c(c3)OCCO4)nn12` [1-{[6-(2,3-dihydro-1,4-benzodioxin-6-yl)[1,2,4]triazolo[3,4-b][1,3,4]thiadiazol-3-yl]methyl}-1H-1,2,3-benzotriazole], it took 1.69 µM to reach half-maximal inhibition (IC50).

As to `Cc1ccc(NC(=O)CSc2nnc(-c3ccc(S(=O)(=O)N4CCCC4)cc3)o2)cc1C` [MLS000071775], the IC50 stood at 12.3 µM.

In the case of `CCCN(CCC)S(=O)(=O)c1ccc(C(=O)Nc2nnc(-c3cccc(OC)c3)o2)cc1` [4-(dipropylsulfamoyl)-N-[5-(3-methoxyphenyl)-1,3,4-oxadiazol-2-yl]benzamide], the IC50 came to 21.2 µM.

In the case of `CCOC(=O)c1c(C2COc3ccccc3O2)csc1NC(=O)c1ccco1` (centres undefined) [4-(2,3-dihydro-1,4-benzodioxin-3-yl)-2-(2-furoylamino)thiophene-3-carboxylic acid ethyl ester], it took 0.654 µM to reach half-maximal inhibition (IC50).

On to `Cc1ccc(-c2cc(C(F)F)n3ncc(C(=O)NCc4ccco4)c3n2)cc1` [7-(difluoromethyl)-N-(2-furanylmethyl)-5-(4-methylphenyl)-3-pyrazolo[1,5-a]pyrimidinecarboxamide], for which the IC50 amounted to 15.3 µM.

As for `CC(C)Cn1c(SCC(=O)NC(=O)Nc2ccc3c(c2)OCCO3)nc2ccccc2c1=O` [MLS000057544], the IC50 was 4.47 µM. This IC50 lies about 3.4-fold lower than the previous one.

`CCN(Cc1ccccc1)S(=O)(=O)c1ccc(C(=O)Nc2nnc(-c3ccccc3OC)o2)cc1` [4-[benzyl(ethyl)sulfamoyl]-N-[5-(2-methoxyphenyl)-1,3,4-oxadiazol-2-yl]benzamide] yielded an IC50 of 8.96 µM.

Take `COc1ccc(C2c3c(oc4ccc(Cl)cc4c3=O)C(=O)N2Cc2ccco2)cc1OC` (centres undefined) [7-chloranyl-1-(3,4-dimethoxyphenyl)-2-(furan-2-ylmethyl)-1H-chromeno[2,3-c]pyrrole-3,9-dione]: the IC50 was determined as 13.5 µM.

In turn, `Nc1sc2c(c1C(=O)NC1CCS(=O)(=O)C1)CCC2` (centres undefined) [2-Amino-5,6-dihydro-4H-cyclopenta[b]thiophene-3-carboxylic acid (1,1-dioxo-tetrahydro-1lambda*6*-thiophen-3-yl)-amide] gave an IC50 of 26.8 µM.

The molecule `Cc1cccc(-n2c(N)c(C(=O)N3CCN(C)CC3)sc2=S)c1` [MLS000056753] gave an IC50 of 45.1 µM.

`N#Cc1nc(-c2ccc(OCc3ccc(Cl)cc3)cc2)oc1NCc1cccnc1` [2-[4-(4-chlorobenzyl)oxyphenyl]-5-(3-pyridylmethylamino)oxazole-4-carbonitrile]: the IC50 was 12.9 µM.

`Cc1cccc(-c2nsc(SCC(=O)Nc3nccs3)n2)c1` [2-[[3-(3-methylphenyl)-1,2,4-thiadiazol-5-yl]sulfanyl]-N-(1,3-thiazol-2-yl)acetamide] showed an IC50 of 3.81 µM.

The molecule `CC(C)c1ccc(C2CC(=O)N3CN(C)CSC3=C2C#N)cc1` (centres undefined) [MLS000117258] yielded an IC50 of 10.7 µM.

`COc1ccc(Cn2nnnc2C(c2cccnc2)N2CCN(c3ccc(O)cc3)CC2)cc1` (centres undefined) [4-(4-{[1-(4-Methoxy-benzyl)-1H-tetrazol-5-yl]-pyridin-3-yl-methyl}-piperazin-1-yl)-phenol] returned an IC50 of more than 50 µM.

`Cc1cc(-c2nn3c(-c4ccccc4)nnc3s2)c2ccccc2n1` [2-methyl-4-(3-phenyl[1,2,4]triazolo[3,4-b][1,3,4]thiadiazol-6-yl)quinoline]: inhibition was half-maximal at 2.6 µM (IC50).

In the case of `COC(=O)c1sc(N2C(=O)c3oc4ccccc4c(=O)c3C2c2cccs2)nc1C` (centres undefined) [2-(3,9-dioxo-1-thiophen-2-yl-1H-[1]benzopyrano[2,3-c]pyrrol-2-yl)-4-methyl-5-thiazolecarboxylic acid methyl ester], the IC50 was 5.25 µM.

`CCOC(=O)Cc1csc(-n2sc3ccccc3c2=O)n1` [MLS000082162] showed an IC50 of 0.598 µM.

As for `COc1ccc(N2CSC3=C(C#N)C(c4cc(OC)ccc4OC)CC(=O)N3C2)c(OC)c1` (centres undefined) [3-(2,4-dimethoxyphenyl)-8-(2,5-dimethoxyphenyl)-6-keto-2,4,7,8-tetrahydropyrido[2,1-b][1,3,5]thiadiazine-9-carbonitrile], it took 2.9 µM to reach half-maximal inhibition (IC50).

On to `CCOC(=O)C1=C(C)N=c2s/c(=C3/C(=O)Nc4ccccc43)c(=O)n2C1c1ccc2c(c1)OCO2` (centres undefined) [SMR000072283], for which the IC50 is 1.07 µM.
